Read-outs that look alike come from different tables or passages of the source.
Legend:
[1] = tested on: T-Rex 293 cell line SC3 cells having increased expression of androgen receptor protein due to exposure to doxycycline; test: Cellular growth inhibition assay, T-Rex 293 SC3 cells with doxycycline (CellTiter-Glo, 72 hours); type: cell-based; settings: T-Rex 293 SC3 cells with increased androgen receptor expression due to doxycycline (10 ng/mL)
In short: (§1)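 Doxycycline (10 ng/mL) was either included or omitted to toggle wild-type androgen receptor expression in SC3 cells, a T-Rex 293 clone, grown in stripped-serum, phenol red-free medium. After 72 hours with compound, viable cells were quantified by CellTiter-Glo 2.0.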

[2] = tested on: T47D cells; test: Cellular growth inhibition assay for T47D cells (CellTiter-Glo, 72 hours); type: cell-based, human; settings: 72 hours treatment
In short: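 Cells are plated at 3000/well and allowed 24 h before treatment. Test compound in medium containing 0.5% DMSO is then added, with DMSO-only wells as negative control, and plates are incubated 72 h at 37 °C. ATP luminescence (CellTiter-Glo 2.0) is then fitted to four parameters to derive GI50.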

[3] = tested on: T-Rex 293 cell line SC3 cells lacking increased expression of androgen receptor protein; test: Cellular growth inhibition assay, T-Rex 293 SC3 cells without doxycycline (CellTiter-Glo, 72 hours); type: cell-based; settings: T-Rex 293 cell line SC3 cells not exposed to doxycycline (lacking increased androgen receptor expression)
In short: as §1

[4] = tested on: VCaP cells; test: Cellular growth inhibition assay for VCaP cells (CellTiter-Glo, 72 hours); type: cell-based, human
In short: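 Luminescent viability signal after 72 h of compound exposure gave GI50 values by four-parameter nonlinear regression. Compounds were added in 0.5% DMSO to cells plated 24 h earlier at 5000/well in DMEM containing 10% FBS.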

| Compound | GI50 ([2]; Homo sapiens, T47D, 72 h) | GI50 ([4]; Homo sapiens, VCaP, 72 h) | GI50 [2] | GI50 [4] | GI50 ([1]; 72 h) | GI50 ([3]; 72 h) | GI50 [1] | GI50 [3] |
| --- | --- | --- | --- | --- | --- | --- | --- | --- |
| Cc1sc2c(c1C)C(c1ccc(C[C@H]3C[C@]4(CCCN(c5ccc(C(=O)N[C@H]6CC[C@H](Oc7ccc(C#N)c(Cl)c7)CC6)nn5)C4)C3)nc1)=N[C@@H](Cc1ncco1)c1nnc(C)n1-2 [I-385] | 500 to 1500 nM | < 500 nM |  |  | < 500 nM | > 3000 nM |  |  |
| Cc1sc2c(c1C)C(c1ccc(N3CCC4(CCCN(c5ccc(C(=O)N[C@H]6CC[C@H](Oc7ccc(C#N)c(Cl)c7)CC6)nn5)C4)CC3)nc1)=N[C@@H](C)c1nnc(C)n1-2 [I-428] | 500 to 1500 nM | < 500 nM |  |  | < 500 nM | > 3000 nM |  |  |
| Cc1sc2c(c1C)C(c1ccc(OC3CC4(CCN(c5ccc(C(=O)N[C@H]6CC[C@H](Oc7ccc(C#N)c(Cl)c7)CC6)nn5)CC4)C3)cc1)=N[C@@](C)(C(C)c1ncco1)c1nnc(C)n1-2 (stereo partly drawn) [I-226] | 500 to 1500 nM | > 3000 nM |  |  | < 500 nM | > 3000 nM |  |  |
| Cc1sc2c(c1C)C(c1ccc(CN3CC(=O)N4C[C@H](c5ccc(C(=O)N[C@H]6CC[C@H](Oc7ccc(C#N)c(Cl)c7)CC6)nn5)C[C@H]4C3=O)cc1)=N[C@@H](Cc1ncco1)c1nnc(C)n1-2 [I-343] | > 3000 nM | 1500 to 3000 nM |  |  | < 500 nM | > 3000 nM |  |  |
| Cc1sc2c(c1C)C(c1ccc(OC3CC4(CCN(c5ncc(C(=O)N[C@H]6CC[C@H](Oc7ccc(C#N)c(Cl)c7)CC6)cn5)CC4)C3)cc1)=N[C@@H](Cc1ncco1)c1nnc(C)n1-2 [I-84] | < 500 nM | < 500 nM |  |  | < 500 nM | < 500 nM |  |  |
| Cc1sc2c(c1C)C(c1ccc(O[C@H]3C[C@@]4(CCCN(c5ccc(C(=O)N[C@H]6CC[C@H](Oc7ccc(C#N)c(Cl)c7)CC6)nn5)C4)C3)nc1)=N[C@H](Cc1ncco1)c1nnc(C)n1-2 [I-221] | > 3000 nM | > 3000 nM |  |  | < 500 nM | > 3000 nM |  |  |
| Cc1sc2c(c1C)C(c1ccc(OC[C@H]3CC[C@@]4(CCCN(c5ccc(C(=O)N[C@H]6CC[C@H](Oc7ccc(C#N)c(Cl)c7)CC6)nn5)C4)C3)cn1)=N[C@@H](Cc1ncco1)c1nnc(C)n1-2 [I-406] | < 500 nM | < 500 nM |  |  | < 500 nM | < 500 nM |  |  |
| Cc1sc2c(c1C)C(c1ccc(OC3CC4(CCN(c5ccc(C(=O)N[C@H]6CC[C@H](Oc7ccc(C#N)c(Cl)c7)CC6)nn5)CC4)C3)cc1)=NC1(CC1)c1nnc(C)n1-2 [I-417] | 500 to 1500 nM | > 3000 nM |  |  | < 500 nM | > 3000 nM |  |  |
| Cc1sc2c(c1C)C(c1ccc(O[C@@H]3CC[C@]4(CCCN(c5ccc(C(=O)N[C@H]6CC[C@H](Oc7ccc(C#N)c(Cl)c7)CC6)nn5)C4)C3)nc1)=N[C@@H](Cc1ncco1)c1nnc(C)n1-2 [I-284] | 500 to 1500 nM | < 500 nM |  |  | < 500 nM |  |  | < 500 nM |
| Cc1sc2c(c1C)C(c1ccc(OC[C@H]3C[C@@]4(CCCN(c5ccc(C(=O)N[C@H]6CC[C@H](Oc7ccc(C#N)c(Cl)c7)CC6)nn5)C4)C3)cn1)=N[C@@H](Cc1ncco1)c1nnc(C)n1-2 [I-340] | < 500 nM | < 500 nM |  |  | < 500 nM | < 500 nM |  |  |
| Cc1sc2c(c1C)C(c1ccc(OC3CC4(C3)CC3(CCN(c5ccc(C(=O)N[C@H]6CC[C@H](Oc7ccc(C#N)c(Cl)c7)CC6)nn5)CC3)C4)nc1)=N[C@@H](C)c1nnc(C)n1-2 [I-436] | 500 to 1500 nM | < 500 nM |  |  | < 500 nM | > 3000 nM |  |  |
| Cc1sc2c(c1C)C(c1ccc(CCC3CC4(CCCC(c5ccc(C(=O)N[C@H]6CC[C@H](Oc7ccc(C#N)c(Cl)c7)CC6)nn5)C4)C3)nc1)=N[C@@H](Cc1ncco1)c1nnc(C)n1-2 (stereo partly drawn) [I-438] | 500 to 1500 nM | < 500 nM |  |  | < 500 nM | < 500 nM |  |  |

More lines, main results first:

| GI50 ([2]; Homo sapiens, T47D, 72 h) | GI50 ([4]; Homo sapiens, VCaP, 72 h) | GI50 [2] | GI50 [4] | Compound | GI50 ([1]; 72 h) | GI50 ([3]; 72 h) | GI50 [1] | GI50 [3] |
| --- | --- | --- | --- | --- | --- | --- | --- | --- |
| < 500 nM | < 500 nM |  |  | Cc1sc2c(c1C)C(c1ccc(N3CCC(C(=O)NCc4ccc(C(=O)N[C@H]5CC[C@H](Oc6ccc(C#N)c(Cl)c6)CC5)nn4)CC3)cc1)=N[C@@H](Cc1ncco1)c1nnc(C)n1-2 [I-292] | < 500 nM | 500 to 1500 nM |  |  |
| < 500 nM | < 500 nM |  |  | Cc1sc2c(c1C)C(c1ccc(C[C@H]3C[C@]4(CN(c5ccc(C(=O)N[C@H]6CC[C@H](Oc7ccc(C#N)c(Cl)c7)CC6)nn5)CCO4)C3)cc1)=N[C@@H](Cc1ncco1)c1nnc(C)n1-2 [I-211] | < 500 nM | < 500 nM |  |  |
|  |  | < 500 nM | < 500 nM | Cc1sc2c(c1C)C(c1ccc(CCC3CCC4CN(c5ccc(C(=O)N[C@H]6CC[C@H](Oc7ccc(C#N)c(Cl)c7)CC6)nn5)CCN4C3)cc1)=NC(Cc1ncco1)c1nnc(C)n1-2 (stereo partly drawn) [I-404] |  |  | < 500 nM | < 500 nM |
| < 500 nM | < 500 nM |  |  | Cc1sc2c(c1C)C(c1ccc(CCN3[C@@H](C)CN(c4ccc(C(=O)N[C@H]5CC[C@H](Oc6ccc(C#N)c(Cl)c6)CC5)nn4)C[C@@H]3C)cc1)=N[C@@H](Cc1ncco1)c1nnc(C)n1-2 [I-379] | < 500 nM | < 500 nM |  |  |
| 1500 to 3000 nM | 500 to 1500 nM |  |  | Cc1sc2c(c1C)C(c1ccc(C(=O)N3CCN(CCc4ccc(C(=O)N[C@H]5CC[C@H](Oc6ccc(C#N)c(Cl)c6)CC5)nn4)CC3)cc1)=N[C@H](Cc1ncco1)c1nnc(C)n1-2 [I-314] | 500 to 1500 nM | > 3000 nM |  |  |
| > 3000 nM | > 3000 nM |  |  | Cc1sc2c(c1C)C(c1ccc(CC[C@H]3CC[C@@]4(CCCN(c5ccc(C(=O)N[C@H]6CC[C@H](Oc7ccc(C#N)c(Cl)c7)CC6)nn5)C4)C3)cc1)=N[C@@H](Cc1ncco1)c1nnc(C)n1-2 [I-213] | > 3000 nM | > 3000 nM |  |  |
|  |  | < 500 nM | < 500 nM | Cc1sc2c(c1C)C(c1ccc(N3CCN(C4CCN(c5ccc(C(=O)N[C@H]6CC[C@H](Oc7ccc(C#N)c(Cl)c7)CC6)nn5)CC4)C3=O)cc1)=NC(Cc1ncco1)c1nnc(C)n1-2 (stereo partly drawn) [I-414] |  |  | < 500 nM | < 500 nM |
| 500 to 1500 nM |  |  | > 3000 nM | Cc1sc2c(c1C)C(c1ccc(N3CCC(CNC(=O)c4ccc(C(=O)N[C@H]5CC[C@H](Oc6ccc(C#N)c(Cl)c6)CC5)nn4)CC3)cc1)=N[C@@H](Cc1ncco1)c1nnc(C)n1-2 [I-231] |  |  | > 3000 nM | > 3000 nM |
|  |  | 1500 to 3000 nM | 1500 to 3000 nM | Cc1sc2c(c1C)C(c1ccc(N3CCN(C4CCN(c5ccc(C(=O)N[C@H]6CC[C@H](Oc7ccc(C#N)c(Cl)c7)CC6)nn5)CC4)C3=O)cc1)=NC(Cc1ncco1)c1nnc(C)n1-2 (stereo partly drawn) [I-413] | < 500 nM |  |  | > 3000 nM |
| < 500 nM | < 500 nM |  |  | Cc1sc2c(c1C)C(c1ccc(CC3CN(CC4CCN(c5ccc(C(=O)N[C@H]6CC[C@H](Oc7ccc(C#N)c(Cl)c7)CC6)nn5)CC4)C3)cc1)=N[C@@H](Cc1ncco1)c1nnc(C)n1-2 [I-113] | < 500 nM | 500 to 1500 nM |  |  |
| < 500 nM | < 500 nM |  |  | Cc1sc2c(c1C)C(c1ccc(COC3(C)CC4(CN(c5ccc(C(=O)N[C@H]6CC[C@H](Oc7ccc(C#N)c(Cl)c7)CC6)nn5)C4)C3)cc1)=N[C@@H](Cc1ncco1)c1nnc(C)n1-2 [I-441] | < 500 nM | < 500 nM |  |  |
| > 3000 nM | > 3000 nM |  |  | Cc1sc2c(c1C)C(c1ccc(CC[C@@H]3CC[C@@]4(CCCN(c5ccc(C(=O)N[C@H]6CC[C@H](Oc7ccc(C#N)c(Cl)c7)CC6)nn5)C4)C3)cc1)=N[C@@H](Cc1ncco1)c1nnc(C)n1-2 [I-214] | > 3000 nM | > 3000 nM |  |  |
| < 500 nM | < 500 nM |  |  | Cc1sc2c(c1C)C(c1ccc([C@H]3C[C@H](C4CC5(CCN(c6ccc(C(=O)N[C@H]7CC[C@H](Oc8ccc(C#N)c(Cl)c8)CC7)nn6)CC5)C4)C3)cc1)=N[C@H](Cc1ncco1)c1nnc(C)n1-2 [I-383] | < 500 nM | > 3000 nM |  |  |
| < 500 nM | < 500 nM |  |  | Cc1sc2c(c1C)C(c1ccc([C@H]3CCN(C(=O)[C@@H]4CCCN(c5ccc(C(=O)N[C@H]6CC[C@H](Oc7ccc(C#N)c(Cl)c7)CC6)nn5)C4)C3)cc1)=N[C@@H](Cc1ncco1)c1nnc(C)n1-2 [I-342] | < 500 nM | < 500 nM |  |  |
| > 3000 nM | > 3000 nM |  |  | Cc1sc2c(c1C)C(c1ccc([C@H]3C[C@H](C4CC5(CCN(c6ccc(C(=O)N[C@H]7CC[C@H](Oc8ccc(C#N)c(Cl)c8)CC7)nn6)CC5)C4)C3)cc1)=N[C@@H](Cc1ncco1)c1nnc(C)n1-2 [I-381] | > 3000 nM | > 3000 nM |  |  |
| 500 to 1500 nM | < 500 nM |  |  | Cc1sc2c(c1C)C(c1ccc(C(C)(C)CN3CC4(CCCN(c5ccc(C(=O)N[C@H]6CC[C@H](Oc7ccc(C#N)c(Cl)c7)CC6)nn5)C4)C3)cc1)=N[C@@H](Cc1ncco1)c1nnc(C)n1-2 [I-440] | < 500 nM | 500 to 1500 nM |  |  |
| 500 to 1500 nM | < 500 nM |  |  | Cc1sc2c(c1C)C(c1ccc(O[C@H]3C[C@@]4(CCCN(c5ccc(C(=O)N[C@H]6CC[C@H](Oc7ccc(C#N)c(Cl)c7)CC6)nn5)C4)C3)cc1)=N[C@@H](Cc1ncco1)c1nnc(C)n1-2 [I-92] | < 500 nM | < 500 nM |  |  |
| < 500 nM | < 500 nM |  |  | Cc1sc2c(c1C)C(c1ccc(CCC(=O)N3CCN(c4ccc(C(=O)N[C@H]5CC[C@H](Oc6ccc(C#N)c(Cl)c6)CC5)nn4)CC3)cc1)=N[C@@H](Cc1ncco1)c1nnc(C)n1-2 [I-249] | < 500 nM | 500 to 1500 nM |  |  |

Reference: patent publication US20260109707A1, “HETEROBIFUNCTIONAL COMPOUNDS AND METHODS OF TREATING DISEASE” (Halda Therapeutics OpCo. Inc., priority 2022, published 2026)
